Reference: article PMC9230573 (Frontiers in Pharmacology, 2022)
Where “and” joins values, the source holds several entries; their conditions need not be identical. Identical values can stand only once. Entries after “also recorded” stand apart in the source; their conditions may differ. Where a SMILES comes first, the peptide text is derived from it. Bridges are numbered along the chain shown (N, C = ends).

Columns and labels:
[1] = molecular target: rat α3β2 nAChR (Rattus norvegicus, UniProt P04757+P12390); experiment: cell-based
[2] = system: L-type (Cav1.2) calcium channels; format: cell-based
[3] = system: locomotor activity; settings: rat, in vivo
[4] = system: GABABR-coupled Cav2.2 channels (human GABAB receptor R1 + R2 subunits and Cav2.2); format: cell-based; settings: SEM
[5] = system: T-type (Cav3.2) calcium channels; format: cell-based
[6] = system: voltage-gated sodium channels in DRG neurons; format: cell-based, rat
[7] = system: rat PNL pain model; settings: in vivo
[8] = system: rat CCI pain model; settings: in vivo
[9] = system: voltage-gated potassium channels in DRG neurons; format: cell-based, rat

rat α3β2 nAChR, sequence (P04757 26-499 limits assumed): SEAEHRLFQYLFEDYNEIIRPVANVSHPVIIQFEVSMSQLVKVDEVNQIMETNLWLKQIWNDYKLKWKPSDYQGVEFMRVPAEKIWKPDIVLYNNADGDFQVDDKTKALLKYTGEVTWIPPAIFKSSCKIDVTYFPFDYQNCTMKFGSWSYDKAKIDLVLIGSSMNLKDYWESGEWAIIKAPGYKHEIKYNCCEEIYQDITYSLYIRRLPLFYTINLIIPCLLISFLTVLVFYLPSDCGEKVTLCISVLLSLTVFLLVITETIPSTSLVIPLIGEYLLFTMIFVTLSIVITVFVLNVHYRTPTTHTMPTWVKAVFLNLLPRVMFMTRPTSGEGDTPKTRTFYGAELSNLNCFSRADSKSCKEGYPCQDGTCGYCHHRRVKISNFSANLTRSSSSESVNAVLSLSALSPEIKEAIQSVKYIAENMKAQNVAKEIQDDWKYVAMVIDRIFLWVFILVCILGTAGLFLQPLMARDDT
rat α3β2 nAChR, sequence (P12390 25-500 limits assumed): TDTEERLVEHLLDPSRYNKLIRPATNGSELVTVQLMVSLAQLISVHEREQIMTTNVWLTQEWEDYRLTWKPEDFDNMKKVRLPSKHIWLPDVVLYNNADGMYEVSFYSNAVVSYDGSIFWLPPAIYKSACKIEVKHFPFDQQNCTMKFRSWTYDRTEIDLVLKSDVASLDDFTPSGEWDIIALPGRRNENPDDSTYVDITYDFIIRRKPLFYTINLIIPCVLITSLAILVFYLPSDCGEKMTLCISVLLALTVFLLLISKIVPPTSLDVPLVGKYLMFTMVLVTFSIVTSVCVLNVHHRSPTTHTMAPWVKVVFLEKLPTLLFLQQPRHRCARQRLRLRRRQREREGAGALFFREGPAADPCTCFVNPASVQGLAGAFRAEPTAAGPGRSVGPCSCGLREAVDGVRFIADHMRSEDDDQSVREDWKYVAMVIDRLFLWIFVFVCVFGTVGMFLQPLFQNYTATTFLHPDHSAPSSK

| Compound | Hillslope [1] | IC50 [1] | inhibition of L-type calcium channels (in words) [2] | effect on locomotor activity (in words) [3] | percent inhibition of IBa at GABABR-coupled Cav2.2 channels [4] | inhibition of T-type calcium channels (in words) [5] | inhibition of voltage-gated sodium channels (in words) [6] | elevation value of the pain threshold [7] | pain threshold [7] | increase in pain threshold [8] | pain threshold elevation percentage [8] | inhibition of voltage-gated potassium channels (in words) [9] | increased mechanical pressure threshold (elevation value of pain threshold) [7] |
| --- | --- | --- | --- | --- | --- | --- | --- | --- | --- | --- | --- | --- | --- |
| CC[C@H](C)[C@@H]1NC(=O)[C@@H]2CCCN2C(=O)[C@@H]2CSSC[C@H](NC(=O)[C@@H](N)CC(N)=O)C(=O)N[C@@H](CSSC[C@@H](C(N)=O)NC(=O)[C@H](CC(N)=O)NC(=O)[C@H](Cc3ccccc3)NC(=O)[C@H](CCCNC(=N)N)NC(=O)[C@H](CO)NC(=O)[C@H](Cc3ccc(O)cc3)NC(=O)[C@H](CC(=O)O)NC1=O)C(=O)N[C@@H](CCSC)C(=O)N[C@@H](Cc1ccccc1)C(=O)N[C@@H](Cc1c[nH]cn1)C(=O)N[C@@H]([C@@H](C)O)C(=O)N2 [Vt1.27] (H-NCCMFHTCPIDYSRFNC-NH2; disulfide 2-8, 3-17) | -0.484 | 1.16 µM | did not significantly inhibit | did not affect locomotor activity | 19 ± 2% | did not significantly inhibit | inactive; also recorded: did not significantly inhibit | 37.6 g | 126.2 ± 9.16 g and 138.8 ± 23.6 g and 165.0 ± 21.4 g | 67.2 g and 40.0 g | 56.4 ± 14.9% and 33.3 ± 15.3% | inactive; also recorded: did not significantly inhibit |  |
| Vc1.1 [reference compound] |  |  |  |  |  |  |  | 7.4 g |  |  | 44.3 ± 9.1% and 26.1 ± 10.0% |  | 71.2 g |
